Test results published in US11974990B2, “TXNIP-TRX complex inhibitors and methods of using the same” (City of Hope, priority 2018, dated 2024).
Entries after “also recorded” stand apart in the source; their conditions may differ.

Experiments:
[1] = tested on: TNF-α mRNA; assay: TNF-α mRNA expression (RT-PCR) in murine MIN6 pancreatic beta cells; format: cell-based; conditions: 25 mM glucose, 72 h (FIG. 11 right)
Protocol: (§1) FIG. 11. […] MIN6 cells were cultured in 25 mM glucose with C1 at uM concentrations for 72 h. Total RNA was prepared. RT-PCR was performed. Data shown are the mean+SEM from triplicates. Statistical analysis was performed for each column vs. HG DMSO using one-way ANOVA: *<0.0001.
(§2) RNA extraction and quantitative RT-PCR. RNA was extracted using the Direct-zol™ RNA MiniPrep Plus (Zymo Research). Reverse transcription of RNA samples into cDNA was performed using the GeneAmp RNA PCR Kit (Applied Biosystems), dNTP (from Roche Applied Science), Rnase inhibitor, MULV Reverse Transcriptase and Random hexamers reagent (all from Invitrogen). Diluted cDNA was quantified using real-time PCR performed with Power SYBR Green qPCR MasterMix (Applied Biosystem) and 7500 real-time PCR system (Applied Biosystems). The HPRT1 gene was used as an internal control.

[2] = tested on: TNF-α mRNA; assay: TNF-α mRNA expression (RT-PCR) in human 1.1B4 pancreatic β cells; format: cell-based; conditions: 1.1B4 β cells, 25 mM glucose, 72 h (FIG. 12 right)
Protocol: FIG. 12. […] Human 1.1B4 β cells were cultured in 25 mM glucose with C1 (uM) for 72 h. Total RNA was prepared. RT-PCR was performed. Data shown are the mean+SEM from triplicates. Statistical analysis was performed for each column vs. HG DMSO using one-way ANOVA: *<0.0001.
as §2

[3] = tested on: TXNIP mRNA; assay: TXNIP mRNA expression (RT-PCR) in murine MIN6 pancreatic beta cells; format: cell-based; conditions: 25 mM glucose, 72 h (FIG. 11 left)
Protocol: as §1, §2

[4] = tested on: TNF-α mRNA; assay: TNF-α mRNA expression (RT-PCR) in murine RAW macrophages; format: cell-based; conditions: RAW cells, 25 mM glucose, 72 h (FIG. 10B)
Protocol: FIGS. 10A-10B. FIG. 10A. […] RAW cells were cultured in 25 mM glucose with C1 (uM) for 72 h. Total RNA was prepared. RT-PCR was performed. Data shown are the mean+SEM from triplicates. Statistical analysis was performed for each column vs. high glucose (HG) DMSO using one-way ANOVA: *<0.0001. FIG. 10B. […] RAW cells were cultured in 25 mM glucose with C1 (uM) for 72 hours. Total RNA was prepared. RT-PCR was performed. Data shown are the mean+SEM from triplicates. Statistical analysis was performed for each column vs. HG DMSO using one-way ANOVA: *<0.0001.
as §2

[5] = tested on: THP1 cells; assay: Differential gene expression analysis by RNA-seq in high glucose treated THP1 cells; format: cell-based, human; conditions: THP1, HG 25 mM 72 hr with vs without C1 5 uM
Protocol: FIG. 17. Hierarchical Clustering using differential expressed genes. Differential expression was calculated using these counts with edgeR (5, 6) version 3.0. After correcting for differences in library sizes, a fold change of >1.5 and a p-value of <0.05 were applied to select expressed genes. The corrected measures of the latter were further processed using Cluster3.0 (7) to generate a heatmap using Java TreeView. C=HG treated THP-1 cells (A, B are replicates); T=HG+C1 5 uM (C, D are replicates). […]
RNA-seq: Sequence alignment and gene counts. RNA-Seq reads were trimmed to remove sequencing adapters using Trimmomatic (Bolger et al., 2014), and polyA tails using FASTP (Chen et al., 2018). The processed reads were mapped to the human genome (hg19) using STAR software (v. 020201) (Dobin et al., 2013). […]
Differential gene expression analyses by RNA-seq. […] Differential expression analysis was conducted by adjusting read counts to normalized expression values using the TMM normalization method in edgeR package (Robinson et al., 2010). […] Next, Raw counts for each gene in the GENCODE coding gene annotation (hg19) were measured using HTseq (Anders and Huber, 2010) with an argument of “-r pos -s reserve”. Differential expression was calculated using these counts with edgeR (5, 6) version 3.0. […]

CC(C)C(C(=O)O)N1C(=O)c2ccncc2C1=O (centres unmarked) [Compound C1, 2-(1,3-dioxo-1,3-dihydro-2H-pyrrolo[3,4-c]pyridin-2-yl)-3-methylbutanoic acid]
TNF-α mRNA levels [1]: did not decrease TNF-α levels
TNF-α mRNA expression [2]: affects TXNIP and TNF-α mRNA expression; also recorded: decreased TNF-α expression
TXNIP mRNA levels [3]: decreased TXNIP
TNF-α mRNA expression [4]: decreased TNF-α mRNA expression; also recorded: inhibited TXNIP and TNF-α mRNA expression
TXNIP and TNF-α expression by RNA-seq [5]: suppressed TXNIP and TNF-α
